Data taken from PubChem BioAssay AID1845211 (Molecular Pharmacology Branch, DTP, NCI, 2023).

System: NCI-H322M multicellular tumor spheroids, viability (% test/control)
Experiment: Anticancer human tumor NCI-H322M cell line growth inhibition;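 on viability, T/C: spheroids exposed to compound for seven days before readout; 100% = DMSO vehicle control wells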
Conditions: for IC50: curve of first compound; for viability, T/C: stronger effect = lower value
Method in brief: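 Complex tumor spheroids combined malignant cells with endothelial cells and mesenchymal stem cells. DNA-damaging drugs and DNA repair inhibitors were tested alone and in combination, at half-log dilutions down from clinical Cmax (top 10 microM if Cmax unknown), 0.25% DMSO final.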

[1] = second compound 1 µM, first compound 0.0316 µM
[2] = second compound 1 µM, first compound 0.1 µM
[3] = second compound 1 µM, first compound 0.316 µM
[4] = second compound 1 µM, first compound 1 µM
[5] = second compound 1 µM, first compound 3.16 µM
[6] = second compound 1 µM, first compound 10 µM
[7] = second compound 3.16 µM, first compound 0.0316 µM
[8] = second compound 3.16 µM, first compound 0.1 µM
[9] = second compound 3.16 µM, first compound 0.316 µM
[10] = second compound 3.16 µM, first compound 1 µM
[11] = second compound 3.16 µM, first compound 3.16 µM
[12] = second compound 3.16 µM, first compound 10 µM
[13] = second compound 10 µM, first compound 0.0316 µM
[14] = second compound 10 µM, first compound 0.1 µM
[15] = second compound 10 µM, first compound 0.316 µM
[16] = second compound 10 µM, first compound 1 µM
[17] = second compound 10 µM, first compound 3.16 µM
[18] = second compound 10 µM, first compound 10 µM
[19] = second compound 31.6 µM, first compound 0.0316 µM
[20] = second compound 31.6 µM, first compound 0.1 µM
[21] = second compound 31.6 µM, first compound 0.316 µM
[22] = second compound 31.6 µM, first compound 1 µM
[23] = second compound 31.6 µM, first compound 3.16 µM
[24] = second compound 31.6 µM, first compound 10 µM
[25] = second compound 100 µM, first compound 0.0316 µM
[26] = second compound 100 µM, first compound 0.1 µM
[27] = second compound 100 µM, first compound 0.316 µM
[28] = second compound 100 µM, first compound 1 µM
[29] = second compound 100 µM, first compound 3.16 µM
[30] = second compound 100 µM, first compound 10 µM

`CC(C)n1c(=O)n(C)c2cnc3cc(F)c(-c4ccc(OCCCN5CCCCC5)nc4)cc3c21` + Cn1nnc2c(C(N)=O)ncn2c1=O was tested. Which IC50 (second compound 1 µM) did it give?
The IC50 was > 10000 nM.

And the IC50 (second compound 3.16 µM)?
Its IC50 is > 10000 nM.

And the IC50 (second compound 10 µM)?
Its IC50 is > 10000 nM.

And the IC50 (second compound 31.6 µM)?
The IC50 was > 10000 nM.

What about the IC50 (second compound 100 µM) of the same molecule?
Its IC50 is > 10000 nM.

And the viability, T/C [1]?
Its viability, T/C is 86.7%.

And the viability, T/C [2]?
Its viability, T/C is 82.1%.

What about the viability, T/C [3] of the same molecule?
Its viability, T/C is 85%.

And the viability, T/C [4]?
Its viability, T/C is 95.4%.

What about the viability, T/C [5] of the same molecule?
Its viability, T/C is 92%.

And the viability, T/C [6]?
The viability, T/C was 77.9%.

And the viability, T/C [7]?
Its viability, T/C is 83.8%.

What about the viability, T/C [8] of the same molecule?
The viability, T/C was 70.6%.

And the viability, T/C [9]?
The viability, T/C was 83.1%.

What about the viability, T/C [10] of the same molecule?
The viability, T/C was 78.7%.

And the viability, T/C [11]?
Its viability, T/C is 81.3%.

What about the viability, T/C [12] of the same molecule?
Its viability, T/C is 82.5%.

And the viability, T/C [13]?
Its viability, T/C is 76.8%.

And the viability, T/C [14]?
The viability, T/C was 84.7%.

And the viability, T/C [15]?
The viability, T/C was 89.4%.

What about the viability, T/C [16] of the same molecule?
The viability, T/C was 98.5%.

And the viability, T/C [17]?
The viability, T/C was 96.4%.

And the viability, T/C [18]?
The viability, T/C was 79.1%.

What about the viability, T/C [19] of the same molecule?
The viability, T/C was 94.9%.

What about the viability, T/C [20] of the same molecule?
Its viability, T/C is 74.8%.

What about the viability, T/C [21] of the same molecule?
Its viability, T/C is 81.9%.

What about the viability, T/C [22] of the same molecule?
Its viability, T/C is 85.2%.

And the viability, T/C [23]?
The viability, T/C was 98.2%.

What about the viability, T/C [24] of the same molecule?
Its viability, T/C is 84.7%.

And the viability, T/C [25]?
Its viability, T/C is 85%.

What about the viability, T/C [26] of the same molecule?
The viability, T/C was 93.4%.

What about the viability, T/C [27] of the same molecule?
Its viability, T/C is 82.1%.

And the viability, T/C [28]?
Its viability, T/C is 88.5%.

And the viability, T/C [29]?
Its viability, T/C is 83%.

What about the viability, T/C [30] of the same molecule?
The viability, T/C was 87%.

How did the IC50 (second compound 1 µM) turn out when `COc1ccc([C@@H](O)c2cc(-c3ncnc4cc(N5CCOCC5)ccc34)c(F)cc2Cl)nn1` + Cn1nnc2c(C(N)=O)ncn2c1=O was run?
The IC50 was 3690 nM.

What about the IC50 (second compound 3.16 µM) of the same molecule?
Its IC50 is 1400 nM.

What about the IC50 (second compound 10 µM) of the same molecule?
Its IC50 is 2040 nM.

What about the IC50 (second compound 31.6 µM) of the same molecule?
Its IC50 is 2010 nM.

And the IC50 (second compound 100 µM)?
The IC50 was 1920 nM.

What about the viability, T/C [1] of the same molecule?
Its viability, T/C is 86%.

What about the viability, T/C [2] of the same molecule?
The viability, T/C was 77.2%.

And the viability, T/C [3]?
The viability, T/C was 85.8%.

And the viability, T/C [4]?
Its viability, T/C is 55.5%.

And the viability, T/C [5]?
Its viability, T/C is 57.1%.

What about the viability, T/C [6] of the same molecule?
The viability, T/C was 35.4%.

And the viability, T/C [7]?
Its viability, T/C is 78.2%.

And the viability, T/C [8]?
The viability, T/C was 80.8%.

What about the viability, T/C [9] of the same molecule?
Its viability, T/C is 81.2%.

What about the viability, T/C [10] of the same molecule?
Its viability, T/C is 52.9%.

What about the viability, T/C [11] of the same molecule?
Its viability, T/C is 50.1%.

And the viability, T/C [12]?
The viability, T/C was 35.8%.

And the viability, T/C [13]?
The viability, T/C was 105%.

And the viability, T/C [14]?
The viability, T/C was 76.9%.

What about the viability, T/C [15] of the same molecule?
Its viability, T/C is 68.2%.

What about the viability, T/C [16] of the same molecule?
The viability, T/C was 61.2%.

What about the viability, T/C [17] of the same molecule?
Its viability, T/C is 46.8%.

What about the viability, T/C [18] of the same molecule?
Its viability, T/C is 35.3%.

What about the viability, T/C [19] of the same molecule?
Its viability, T/C is 83.6%.

What about the viability, T/C [20] of the same molecule?
Its viability, T/C is 94.6%.

What about the viability, T/C [21] of the same molecule?
The viability, T/C was 65.7%.

And the viability, T/C [22]?
Its viability, T/C is 58.9%.

What about the viability, T/C [23] of the same molecule?
Its viability, T/C is 47.9%.

What about the viability, T/C [24] of the same molecule?
The viability, T/C was 39.5%.

And the viability, T/C [25]?
The viability, T/C was 80.7%.

And the viability, T/C [26]?
Its viability, T/C is 75.5%.

And the viability, T/C [27]?
The viability, T/C was 82.7%.

And the viability, T/C [28]?
The viability, T/C was 58.6%.

And the viability, T/C [29]?
Its viability, T/C is 44.8%.

And the viability, T/C [30]?
The viability, T/C was 34.4%.
